Each structure is given as a SMILES string.

Data set [1] is described as follows: NO release by chemiluminescence detection, GSH without enzyme. It is filed as physicochemical. The method, then: Measurement of NO Release. Chemiluminescence detection and quantification of NO evolving from the reactions of JS-K were conducted using an NO-specific Thermal Energy Analyzer (Model 502A, Thermedics, Analytical Instrument Division, Waltham, Mass.) essentially as previously described (Keefer, L. K. et al. (1996) Methods Enzymol. 268: 281-293). Briefly, pH 7.4 phosphate buffer containing 1 mM GSH was sparged with inert gas until a steady detector response was established. Where indicated, GSTs were added to a final concentration of 1.67 ug of enzyme/ml. […] The resulting curve was integrated to quantify the amount of NO released/mole of compound.
These reactions led to NO generation as predicted as indicated by purging gases from the solution as they formed into an NO-specific chemiluminescence detector. […] In the absence of enzyme, NO release began immediately upon adding GSH, increasing in rate until plateauing at 8 min and integrating to a total of 1.1 mol of NO per mol of JS-K within 43 min of mixing.

For a further data set, the system named is rabbit thoracic aorta. Put plainly: Rabbit aortic rings bioassay of NO activity (vasorelaxation). An excerpt: Preparation of Rabbit Aortic Rings for Bioassay of NO Activity. The preparation of rabbit aortic rings was similar to that described previously (Jia L and Furchgott R F (1993) J Pharmnacol Exp Ther 267: 371-378.), and the animal protocol was approved by the Institutional Animal Care and Use Committee. Briefly, a male New Zealand rabbit was anesthetized by an intravenous injection of sodium pentobarbital into a marginal ear vein. The descending thoracic aorta was quickly removed. The aortic rings (2 mm in length) were prepared and mounted in 20 ml of Krebs' solution (bubbled with 95% O2/5% CO2, 37° C.) in organ chambers. […] Rings were allowed to equilibrate for at least 90 min before experiments were initiated. Basal tension was maintained at approximately 3 g. To allow studies on relaxation, each ring was precontracted submaximally by addition of 50-100 nM phenylephine to the bathing solution. When the contraction had reached a steady state, JS-K was added successively to the bathing solution until the maximal relaxation was obtained. Hb and ODQ were also added to the bathing solution to investigate the mechanisms of action of JS-K.
The ability of JS-K to function as a NO donor was examined in the rabbit thoracic aorta model. […]

The subject of data set [2] is 58 human cancer cell lines. It is filed as cell-based. The method, then:
Anticancer screen of JS-K against the NCI 58 human cancer cell lines. Cells initially maintained in multiple T150 tissue-culture flasks were detached from the flasks by addition of 2-3 ml of 0.05% trypsin-EDTA when cells reached 70-90% confluency. Thereafter, trypsin was inactivated by addition of 10 ml of RPMI 1640 medium containing 5% fetal bovine serum. All cells were then transferred and seeded onto 96-well microtiter plates at densities between 5,000 and 30,000 cells per well. Three cell lines were inoculated per plate. The cells were grown in RPMI 1640 supplemented with 5% fetal bovine serum and 2 mM L-glutamine for 24 h at 37° C. to allow stabilization prior to addition of JS-K. A total of 58 human cancer cell lines were used for the broad screening. The stock solution of JS-K in DMSO was serially diluted with the RPMI 1640 medium and added immediately to the microtiter plates to produce five concentrations of JS-K, i.e., 10^−4, 10^−5, 10^−6, 10^−7 and 10^−8 M. JS-K was incubated with cells for 48 h.
At the end of incubation, the cells were fixed in situ by 10% trichloroacetic acid, and washed five times with water and dried. Sulforhodamine B (0.4% in 1% acetic acid), a protein stain binding to basic amino acids of cellular macromolecules, was added to each well, and incubated for 10 min at room temperature. Unbound Sulforhodamine B is removed by washing five times with acetic acid. Then the plates were air-dried. Bound stain is solubilized with Tris buffer, and the optical densities were read at 515 nm. The optical densities generated from Sulforhodamine B staining are a function of cell mass and growth rate (Monks et al., 1991). Thus cells with small mass (e.g., leukemias) or relatively slow division rate (e.g., renal RXF393 and lung cancer HOP-92) were inoculated at the relatively high densities of 20,000-30,000 cells per well, while more rapidly dividing cells (e.g., colon HT29 and HCT-116 cell lines, and lung NCI-H460 cells) were inoculated at 5,000 cells per well. For the suspended leukemia cell subpanel, the cells were fixed to the bottom of the microtiter well by adding cold trichloroacetic acid (final concentration 16%) at the end of the drug-incubation period.
The dose-response curve is created by plotting the % growth against the log10 of the corresponding JS-K concentrations for each cell line by disease subpanel group. Three horizontal lines are provided at the % growth values of 50, 0 and −50, respectively. Thus the molar JS-K concentrations corresponding to points where the curves cross these lines represent the interpolated values that cause 50% growth inhibition (GI50, the JS-K concentration causing a 50% reduction in the net protein increase in control cells), total growth inhibition (TGI, the JS-K concentration causing amount of protein at the end of incubation to be equal to the amount at the beginning) and 50% cell killing (LC50, the JS-K concentration causing a 50% reduction in the protein of treated cells at the end of the drug incubation, compared with that at the beginning, indicating a net loss of cells following drug treatment), respectively.

Consider `CCOC(=O)N1CCN(/[N+]([O-])=N/Oc2ccc([N+](=O)[O-])cc2[N+](=O)[O-])CC1` [JS-K, O^2-(2,4-dinitrophenyl) 1-[(4-ethoxycarbonyl)piperazin-1-yl]diazen-1-ium-1,2-diolate], for which, in data set [1] (1 mM GSH, no enzyme), the “time at which NO release rate plateaued” value is listed as 8 min. In data set [1] (1 mM GSH, pH 7.4 phosphate, 0.67 uM JS-K, no enzyme, within 43 min of mixing), the “total NO released” value is listed as 1.1 mol of NO per mol of JS-K. In data set [1] (pH 7.4 phosphate/0.67 uM JS-K solution), the “NO detection without GSH” value is given as “did not appear to be detected until 1 mM GSH was added”. Moreover, in the data set with rabbit thoracic aorta (Hb and ODQ added), the reversibility of vasoactivity result is “reversible in the presence of a NO scavenger and a specific inhibitor of the NO-sGC-cGMP pathway”. In addition, the “concentration at which vasorelaxation reached a maximum” value in the data set with rabbit thoracic aorta (rings precontracted with phenylephine) was 100 nM. Besides, in data set [2], the half-maximal cytotoxic concentration (CC50) turned out to be 29.5 µM; the “relative sensitivity to cytostatic and cytotoxic effects” value is “most sensitive”. In data set [2] (58 human cell lines, 48 h), growth was halved (GI50) at 1300 nM and the “mean TGI” value came out at 6.6 µM. Further, in data set [2] (prostate cancer cell lines), the “inhibition against prostate cancer cell lines” value is “moderate inhibition”. Moreover, the LC50s entry in data set [2] (some cell lines within the colon, melanoma and breast cancer subpanels) was “more than 100 μM”.

The CC50 is the concentration giving 50% cytotoxicity. Lower therefore signals harm at low concentration. What is called GI50 is the concentration at which growth is held to half of that of the control. A high value points to lower sensitivity of the cells.
